Data set [1] addresses T1, 5HT2A (Homo sapiens, UniProt P28223). Kind of data set: Human 5HT2A inhibition assay (FLIPR calcium 6, 5HT stimulus, stably transfected HEK293 cells). It is filed as cell-based. Also noted: expressed in transfected cells; host or cells: HEK293. Particulars: for inhibition at 1 µM: HEK293, 1 μM, read-out: % Inhibition at 1 μM (SD). How it is done:
The derivatives were evaluated at a concentration of 1 μM for their antagonist activity on the 5HT2A receptor (Tables 1–3)[33],[34]. […] The cells were stained with 100 μL of cytosolic calcium dye using the FLIPR calcium 6 assay solution (Molecular devices, #R8190) supplemented with 2.5 mM probenecid (Sigma; P8761) and incubated for 1 h at 37 °C. After 1 h, the designated amount of the compound was treated in each well and incubated for another 1 h at 37 °C. […] Experimental conditions for the 5HT subtypes can be found in the Supporting Information (Supplementary Table 1).

In data set [2] the target is T1, 5HT2A. The description is as above. It is filed as cell-based. Set-up: expressed in transfected cells; host or cells: HEK293. The settings on record: HEK293, 10 μM; read-out: % Inhibition at 10 μM (SD).
A short description of data set [3]: Liver microsomal stability, rat. It is filed as in vitro ADME. From the text: (§1) Based on the structure and activity of the two series above, we replaced the alcohol with –CH2.
Data set [4] is described as follows: Liver microsomal stability, human. It is filed as in vitro ADME.
From the text: as §1

Data set [5] can be described thus: Liver microsomal stability (species not stated). It is filed as in vitro ADME. (Liver microsomes are vesicles of endoplasmic reticulum, rich in cytochrome P450 enzymes.)
For a further data set, the system named is STZ+HFD mice. Kind of data set: STZ+HFD mice (modified STAM) NASH and liver fibrosis model. It is filed as in vivo, mouse. The settings on record: 11c 5 or 10 mg/kg, OCA 10 mg/kg. As for the experimental part:
Mice were intraperitoneally injected with low-dose streptozotocin (40 mg/kg; 5 times) in 7-week-old mice. After injection with STZ, mice were fed an HFD for 16 weeks to induce NASH and liver fibrosis. After 16 weeks of an HFD, mice were fed a standard chow diet to mimic the NASH patient under […]
nine weeks by oral gavage (Reviewer-only data 4). […]
inflammation, hepatocyte ballooning, and total NAFLD activity score by the NASH CRN histological scoring system (Reviewer-only data 4B, C). […]
hepatic fibrosis stage similar to STZ+HFD mice treated with OCA (Reveiwer-only data 4D, E). STZ+HFD mice […]
function (Reviwer-only data 4F). […]
group (Reviewer-only data 4G). Furthermore, the expression of genes related to lipogenesis and fibrosis was reduced in the compound 11c-treated group in a dose-dependent manner (Reviewer-only data 4H, I). These […]
Reviewer-only Data 4. Compound 11c treatment with dietary modification ameliorates NASH and liver fibrosis in a dose-dependent manner. (A) Experimental scheme for in vivo efficacy of compound 11c in […]
(STZ+HFD mice. (B-I) STZ+HFD mice fed HFD for 16 weeks were switched to SCD for 9 weeks and were treated with vehicle, compound 11c, or OCA by daily oral gavage. (B) Representative liver histology by H&E staining […]
mg/kg. Scale bars, 100µm. […]
mice; n = 9 per group. (D) Representative liver histology by Masson’s trichrome staining from vehicle, […]
Scale bars, 100µm. (E) Fibrosis stage
(F) Serum AST and ALT levels; n = 9 per […]
group. (G) Serum TG levels and hepatic TG levels; n = 9 per group. (H) Relative mRNA expression of lipogenesis-related genes as assessed by qRT-PCR in the liver; n = 9 per group. (I) Relative mRNA expression of fibrosis-related genes as assessed by qRT-PCR in the liver; n = 9 per group. Data are expressed as the means ±SEM.
[…], **P<0.01, one-way ANOVA with post hoc Tukey’s test (C, E, F, G, H, I). […]
Representative liver histology by Masson’s trichrome staining and Sirius Red staining. Scale bars, 100µm. (E) […]
one-way ANOVA with post hoc Tukey’s test (C, E).
Comment 2: In "Methods", the author claims to use HEK293 cells (a type of cell derived from kidney embryos) for cell research, however, the data in Table 5 are the results of hepatocyte experiments. What happened? Response: We appreciate the Reviewer’s comment. HEK293 cells were used for inhibition assay (cell research), shown in Table 1-3 of the main manuscript, while, hepatic cell lines were used for chemical profiling and for “Hepatocyte stability” test, shown in Table 5 of the main manuscript. The “Selectivity” of Compound 11c for different 5HT subtypes is elucidated in response to Comment 6.
We have modified the Methods section to provide clarity.

“Also recorded” adds a separate entry of the source.

T1 sequence (P28223 whole entry): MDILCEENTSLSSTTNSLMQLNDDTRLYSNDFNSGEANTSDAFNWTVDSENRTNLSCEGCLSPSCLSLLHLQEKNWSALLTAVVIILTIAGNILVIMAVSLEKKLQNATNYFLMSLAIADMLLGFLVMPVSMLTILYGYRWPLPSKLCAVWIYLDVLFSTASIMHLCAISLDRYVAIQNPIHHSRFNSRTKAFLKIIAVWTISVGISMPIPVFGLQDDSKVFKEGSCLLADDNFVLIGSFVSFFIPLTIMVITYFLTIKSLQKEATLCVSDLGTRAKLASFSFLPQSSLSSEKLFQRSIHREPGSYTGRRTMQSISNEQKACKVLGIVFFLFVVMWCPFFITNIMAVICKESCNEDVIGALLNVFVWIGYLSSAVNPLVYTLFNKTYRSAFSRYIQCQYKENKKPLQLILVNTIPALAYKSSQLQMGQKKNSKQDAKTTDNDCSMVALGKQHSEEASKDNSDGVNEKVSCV

Usually IC50 stands for the concentration needed to halve the response being measured. Broadly, the inhibition is the drop in the measured response relative to a control, in per cent. For the compound `CN1CCC(=C2c3ccc(Cl)cc3CCc3cccnc32)CC1` [Compound 6], at 5HT2A [1], the IC50 is 0.119 µM and the inhibition at 1 µM worked out at 90 ± 0.62%. The inhibition at 10 µM on 5HT2A [2] was found to be 95 ± 0.31%.
As to `CC(=O)N1CCC(=C2c3ccc(Cl)cc3CCc3cccnc32)CC1` [Compound 3], the inhibition at 10 µM on 5HT2A [2] was -1%.
Same read-out and setting: under `CC(C)NC(=S)N1CCC(=C2c3ccc(Cl)cc3CCc3cccnc32)CC1` [Compound 5] stands 8%.
One may read the % Inhibition as the change of the read-out against control, counted positive when it falls. As to `O=c1[nH]c2ccccc2c(=O)n1CCN1CCC(=C2c3ccc(Cl)cc3CCc3cccnc32)CC1` [Compound 11d], in data set [3], the “metabolic stability in the liver microsome (% after 30 min incubation)” value is 0.50%. For the same compound, on 5HT2A [1], the IC50 amounted to 0.047 µM and the “IC50 (nM)” value is “lower in vitro activity than 11c”. Also, the “% Inhibition at 1 μM (SD)” value on 5HT2A [1] (1 μM) turned out to be 102 ± 0.03%. The “metabolic stability in the liver microsome (% after 30 min incubation)” value in data set [4] came out at 5.33%. Also, in data set [5], the “liver microsomal stability (in words)” value is “metabolically unstable; also recorded: low liver microsomal stability”.
Take `CC[C@H]1[C@@H](O)[C@@H]2[C@H](CC[C@]3(C)[C@@H]([C@H](C)CCC(=O)O)CC[C@@H]23)[C@@]2(C)CC[C@@H](O)C[C@@H]12` [OCA, Obeticholic acid, reference compound]: the hepatic fibrosis stage result with STZ+HFD mice is reported as “improvement”.
For the compound `Cc1nc2n(c(=O)c1CCN1CCC(=C3c4ccc(Cl)cc4CCc4cccnc43)CC1)CCCC2` [Compound 11b], in data set [3], the “metabolic stability in the liver microsome (% after 30 min incubation)” value is 11.7%. Also, at 5HT2A [1], the concentration for half-maximal inhibition (IC50) was found to be 0.014 µM and the inhibition at 1 µM amounted to 92.63 ± 0.6%. Also, in data set [4], the “metabolic stability in the liver microsome (% after 30 min incubation)” value worked out at 17.3%. In data set [5], the “liver microsomal stability (in words)” value is “metabolically unstable; also recorded: rapidly metabolized in the liver microsome”.

The record behind these values is article PMC10799935, “Discovery of a peripheral 5HT2A antagonist as a clinical candidate for metabolic dysfunction-associated steatohepatitis” (Nature Communications, 2024).
